How the values were obtained:
Th17 cells = test: Differentiation of mouse naïve T cells into Th17 cells; format: cell-based; settings: Rag2 KO/OVA-TCRtg naïve T cells, 3 days, secreted cytokine protein; compared with berberine; FIG. 12
Protocol: Particularly, the transgenic mouse (Rag2 KO/OVA-TCRtg) naïve T cells were cultured under the condition of Th17 cell differentiation (treated with IL-6, IL-1β, and TGF-β along with APC cells) for 3 days. Compared with berberine known as a Th17 differentiation inhibitor, the inhibitory effect of the NFAT5 inhibitor on the differentiation of Th17 was measured by quantifying the secreted cytokine protein. Cell survival rate under the same condition was also measured by CCK-8.

[1] = Cytotoxicity test (WST-8), L929; format: cell-based; settings: mouse, L929 fibroblast cells (NCTC clone 929); L929, 24 hours
Protocol: (§1) To investigate the cytotoxicity of the derivative of the present invention, 5 kinds of cell lines (VERO: African green monkey kidney cell line, HFL-1: human embryonic lung cell line, L929: NCTC clone 929, mouse fibroblast cell line, NIH 3T3: mouse embryonic fibroblast cell line, and CHO-K1: Chinese hamster ovary cell line) were distributed in a 96-well plate at the density of 1×10^4 cells/well, which were treated with the compound of the present invention for 24 hours. The water-soluble tetrazolium salt WST-8 was added thereto. The orange colored formazan dye degraded by dehydrogenase in the live cells was read, followed by nonlinear regression to determine 50% growth inhibition concentration.

NFATc = test: NFAT (NFATc) transcriptional activity, THP1-XBlue-MD2-CD14 cells, SEAP; format: cell-based; settings: LPS 1 μg/ml, 24 hours, FIG. 2B
Protocol: To evaluate the transcriptional activity of NFAT, THP1-XBlue-MD2-CD14 cells were cultured in 10% FBS-RPMI (supplemented with 200 μg/ml of Zeocin and 250 μg/ml of G418). First, the cells were distributed in a 96-well plate at the density of 2×10^4 cells/well, followed by culture. 1 μg/ml of LPS and the compound of the invention were added thereto, followed by culture for 24 hours. 20 μl of the supernatant was added with 180 μl of secreted embryonic alkaline phosphatase (SEAP) detection medium, followed by culture for 2 hours. Then, OD655 was measured.

[2] = Cytotoxicity test (WST-8), HFL-1; format: cell-based; settings: human, HFL-1 embryonic lung cells; HFL-1, 24 hours
Protocol: as §1

iNOS = test: Inhibition of LPS-induced iNOS induction in Raw264.7 cells (Griess reagent); format: cell-based; settings: Mus musculus, Raw264.7, LPS 100 ng/ml, 24 hours, read-out: Inhibition rate of iNOS induction (%)
Protocol: To investigate whether or not the derivative of the present invention could inhibit iNOS inducement, Raw264.7 cells (mouse macrophages) were distributed in a 384-well plate at the density of 3×10^4 cells/well. The cells were treated with LPS at the concentration of 100 ng/ml, followed by culture at 37° C. for 24 hours. The concentration of […] increased in the medium was measured by using Griess reagent. The inhibition rate was calculated by mathematical formula based on the detected signals. The results are shown in Table 2. % inhibition=(mean value of sample−mean value of negative control)/(mean value of positive control −mean value of negative control)×100 [Mathematical Formula 1]

[3] = Cytotoxicity test (WST-8), NIH 3T3; format: cell-based; settings: mouse, NIH 3T3 embryonic fibroblast cells; NIN3T3, 24 hours
Protocol: as §1

NFAT5 [4] = test: NFAT5 transcription and nuclear localization in LPS-stimulated RAW264.7 cells; format: cell-based, mouse; settings: FIG. 4
Protocol: Particularly, RAW264.7 cells were distributed in a 12-well plate at the density of 1.5×10^5 cells/well, followed by culture in 10% FBS-RPMI 1640 medium. The cells were stabilized for a day. The compound of Example 1 was treated thereto at the concentration of 1 μM for 1 hour, and then the cells were stimulated with LPS for 12 hours. 12 hours later, mRNA was extracted from the cells, and cDNA was synthesized therefrom. PCR (real-time PCR) was performed to measure the expression level of NFAT5 mRNA. The migration of the transcription factor NFAT5 from the cytoplasm to the nucleus was investigated. Particularly, RAW264.7 cells were distributed in a 6-well plate at the density of 6×10^5 cells/well, followed by culture in 10% FBS-RPMI 1640 medium. The cells were pre-treated with the compound 6 (1 μM) for 1 hour, and treated with LPS (1 μg/ml) for 24 hours. Cytoplasm and nucleus proteins were separated from the stimulated cells and the levels of NFAT5 and p65 protein (NF-kB subunit) were measured.

[5] = Cytotoxicity test (WST-8), CHO-K1; format: cell-based; settings: Chinese hamster, CHO-K1 ovary cells; CHO-K1, 24 hours
Protocol: as §1

[6] = Cytotoxicity test (WST-8), VERO; format: cell-based; settings: African green monkey, VERO kidney cells
Protocol: as §1

NFAT5 [7] = test: NFAT5 protein in LPS-stimulated spleen cells of collagen-induced arthritis mice; format: in vivo; settings: CIA mouse spleen cells treated with LPS; FIG. 9
Text: Particularly, the spleen cells of the mouse having arthritis induced by collagen by the same manner as described in Example 11 were stimulated with LPS. Protein was extracted from the cells, followed by quantification of NFAT5 protein.

Q: What does the source list for `COc1ccc2c(Cc3ccccc3F)c3n(c(=O)c2c1OC)CCc1cc2c(cc1-3)OCO2` [Example 1, 13-(2-fluorobenzyl)-9,10-dimethoxy-5H-[1,3]dioxolo[4,5-g]isoquinolino[3,2-a]isoquinoline-8(6H)-one]?
A: inhibitory effect on the differentiation of Th17 (Th17 cells): inhibitory effect on the differentiation of Th17 as similar as berberine; GI50 at 24 h [1]: 40.3 µM; inhibition of NFAT promoter / transcriptional activity (in words) (NFATc): slightly; GI50 at 24 h [2]: 26.1 µM; inhibition at 1 µM (iNOS; 1 μM): 91%; inhibition at 10 µM (iNOS; 10 μM): 134%; GI50 at 24 h [3]: 7.16 µM; increase of NFAT5 expression caused by LPS (from the phase of transcript) (NFAT5 [4]; 1 μM for 1 hour, LPS 12 hours, real-time PCR): suppressed; NFAT5 protein level increased by LPS (cytoplasm/nucleus) (NFAT5 [4]; 1 μM pre-treatment 1 hour, LPS 1 μg/ml 24 hours): reduced; GI50 at 24 h [5]: 12.1 µM; GI50 at 24 h [6]: 84.2 µM; expression of NFAT5 (NFAT5 [7]): suppressed

From US9650389B2, “8-oxoprotoberberine derivative or pharmaceutically acceptable salt thereof, preparation method therefor and pharmaceutical composition for preventing or treating diseases associated with activity of NFAT5, containing same as active ingredient” (Korea Research Institute of Chemical Technology, priority 2013, dated 2017)
